Assay results taken from BindingDB's records for PubMed 31434879 (University of California Irvine (UCI)).

Tests used:
[1] = Inhibition of FLT3 (unknown origin) expressed in mouse BaF3 cells assessed as inhibition of FLT3 ligand-FLT3 dependent cell proliferation incubated for 3 days by ATPlite 1step Luminescence Assay reagent based assay
[2] = Inhibition of FLT3-ITD (unknown origin) expressed in mouse BaF3 cells assessed as inhibition of FLT3-ITD dependent cell proliferation incubated for 3 days by ATPlite 1step Luminescence Assay reagent based assay

With `COc1ncc(F)cc1CNc1ccc(Cc2c[nH]c3ncc(C)cc23)c(F)n1` [US9096593, P-2049] the IC50 [1] was over 10 µM and the IC50 [2] was over 10 µM.
